Measured values from PMC5995273, “Identification and Characterization of Genes Involved in Benzylisoquinoline Alkaloid Biosynthesis in Coptis Species” (Frontiers in Plant Science, 2018).

Molecular target: T1, Ct7OMT (Coptis teeta, UniProt A0A2Z5FRT2)
T1 construct: gene 7OMT
Experiment: UPLC-QTOF-MS/MS product detection
Format: biochemical
Conditions: SAM 0.1 mM, substrate 100 uM, pH 8.0, 30 C, 1 h

T1 sequence (A0A2Z5FRT2 entry or part of it): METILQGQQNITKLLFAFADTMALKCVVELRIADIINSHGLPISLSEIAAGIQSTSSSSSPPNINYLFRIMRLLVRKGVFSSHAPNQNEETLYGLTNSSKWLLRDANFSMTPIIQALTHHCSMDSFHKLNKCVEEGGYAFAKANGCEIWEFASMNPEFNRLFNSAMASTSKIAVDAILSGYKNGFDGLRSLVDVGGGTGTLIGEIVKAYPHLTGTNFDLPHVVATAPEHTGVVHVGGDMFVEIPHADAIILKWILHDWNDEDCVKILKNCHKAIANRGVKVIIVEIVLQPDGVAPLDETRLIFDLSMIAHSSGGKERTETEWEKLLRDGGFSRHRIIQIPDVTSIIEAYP

Oc1ccc(C[C@@H]2NCCc3cc(O)c(O)cc32)cc1 [compound 1, (S)-norcoclaurine]
UPLC-QTOF-MS/MS product detection: Ct7OMT also O-methylates (S)-norcoclaurine at C6, yielding (S)-coclaurine
